Reference: patent US5428016A, “Antimicrobial peptide and antimicrobial agent” (Morinaga Milk Industry Co., Ltd., priority 1991, dated 1995)
Where no end group is shown, it is not given here.

Key:
Assay type in all cases: cell-based
[1] = system: Staphylococcus aureus JCM 2151; conditions: JCM 2151, 17 h
Experimental: (§1) The antimicrobial peptides (samples Nos. 1 to 15) were prepared using the same methods as in Examples 1 to 15, and antimicrobial peptide derivatives (samples Nos. 16 to 18) were prepared using the same methods as in Examples 16 to 18, and were sterilized by filtration using a 0.45 μm Millex filter prior to use.
(§2) Various microbial strains shown in Table 4 in the logarithmic phase of growth were inoculated in a peptone medium which consisted of 1% Bactopeptone (manufactured by Difco Laboratory Co.) at a cell concentration of 10^6 /ml, and 160 μl thereof were incubated for 17 hours at 37° C. (or 30° C.) using a 96-hole microtiter plate (manufactured by Falcon Co.). Each sample was added to each medium at a ratio of 0, 1.5, 3, 6, 12, 25, 50, 100, 125 or 250 μM. The growth of the various microorganisms in the various samples at various concentrations was studied by measuring the light absorption at 660 nm.
(§3) The microorganisms used in this experiment are available from The Medical School Laboratories of Tokyo University (IID), Japanese Physicochemical Laboratories (JCM), Japanese International Dairy Federation (IDF), and the storage at the laboratory of the applicant (MMI).

[2] = system: Listeria monocytogenes IDF 1b; conditions: 17 h
Experimental: as §1, §2, §3

[3] = system: Klebsiella pneumoniae JCM 1662 T; conditions: JCM 1662, 17 h
Experimental: as §1, §2, §3

[4] = system: Pseudomonas aeruginosa MMI 603; conditions: MMI 603, 17 h
Experimental: as §1, §2, §3

[5] = system: Escherichia coli IID 861
Experimental: as §1, §2, §3

[6] = system: Escherichia coli MMI 0111; experiment: Antimicrobial spectrum, minimum inhibitory concentration
Experimental: as §1, §2, §3

Substance | minimum inhibitory concentration (MIC) [1] | minimum inhibitory concentration (MIC) [2] | minimum inhibitory concentration (MIC) [3] | minimum inhibitory concentration (MIC) [4] | minimum inhibitory concentration (MIC) [5] [µM] | minimum inhibitory concentration (MIC) [6] [µM]
KRNMRK [Sample No. 9, Lys-Arg-Asn-Met-Arg-Lys] | up to 100 μM | up to 100 μM | – | – | – | –
KSRRRQWRMKK [Sample No. 12, Lys-Ser-Arg-Arg-Arg-Gln-Trp-Arg-Met-Lys-Lys] | up to 12 μM | up to 12 μM | up to 50 μM | up to 50 μM | – | –
KTFQWQRNMRK [Sample No. 14, Lys-Thr-Phe-Gln-Trp-Gln-Arg-Asn-Met-Arg-Lys] | up to 12 μM | up to 12 μM | up to 50 μM | up to 50 μM | – | –
KTLRWQNEMRK [Sample No. 15, Lys-Thr-Leu-Arg-Trp-Gln-Asn-Glu-Met-Arg-Lys] | up to 12 μM | up to 12 μM | up to 50 μM | up to 50 μM | – | –
KTRRWQWRMKK [Sample No. 11, Lys-Thr-Arg-Arg-Trp-Gln-Trp-Arg-Met-Lys-Lys] | up to 12 μM | up to 12 μM | up to 50 μM | up to 50 μM | – | –
KTRRWQWRMKK-NH2 [Sample No. 18, Lys-Thr-Arg-Arg-Trp-Gln-Trp-Arg-Met-Lys-Lys-NH2] | – | – | – | – | 3 | 6
KTVSWQTYMKK [Sample No. 13, Lys-Thr-Val-Ser-Trp-Gln-Thr-Tyr-Met-Lys-Lys] | up to 12 μM | up to 12 μM | up to 50 μM | up to 50 μM | – | –
KTVSWR [Sample No. 8, Lys-Thr-Val-Ser-Trp-Arg] | up to 100 μM | up to 100 μM | – | – | – | –
RRRQWR [Sample No. 7, Arg-Arg-Arg-Gln-Trp-Arg] | up to 100 μM | up to 100 μM | – | – | – | –
RRWQWR [Sample No. 6, Arg-Arg-Trp-Gln-Trp-Arg] | up to 100 μM | up to 100 μM | – | – | – | –
RWQEMK [Sample No. 10, Arg-Trp-Gln-Glu-Met-Lys] | up to 100 μM | up to 100 μM | – | – | – | –
